Test results: the supplement of paper PMC10307832

Columns and labels:
Assay in all cases: relative viability (nuclei count vs DMSO), 5 days (fraction); higher = more cells survive
[1] = compound: C1CC(C1)(C(=O)O)C(=O)O.[NH2-].[NH2-].[Pt+2] [Carboplatin] + Cc1cc(Nc2cc(N3CCN(C)CC3)nc(Sc3ccc(NC(=O)C4CC4)cc3)n2)n[nH]1 [Tozasertib] (partner 0.1 µM)
Summary of the method: (§1)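 Medians of duplicate plates are given as relative viability. That measure is the nuclei count in treated wells divided by the count in vehicle wells. Counts were taken on 4× images of lung cancer cell lines in 1536-well plates, 5 days after pin-tool dosing the day after seeding with one drug alone or a fixed anchor-drug dose plus five library-drug doses (not always all listed) in √10 steps.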

[2] = compound: CC[C@H](C)N1C=C(C2=C(C=C(C=C21)C3=CN=C(C=C3)N4CCNCC4)C(=O)NCC5=C(C=C(NC5=O)C)C)C [GSK126] + C[C@]1(O)C[C@@H](c2nc(-c3ccc4ccc(-c5ccccc5)nc4c3)c3c(N)nccn32)C1 [Linsitinib] (partner 1 µM)
Summary of the method: as §1

[3] = compound: C1CC(C1)(C(=O)O)C(=O)O.[NH2-].[NH2-].[Pt+2] [Carboplatin] + O=C(CCCCCCC(=O)Nc1ccccc1)NO [Vorinostat] (partner 1 µM)
Summary of the method: as §1

[4] = compound: NS(=O)(=O)OC[C@@H]1C[C@@H](n2ccc3c(N[C@H]4CCc5ccccc54)ncnc32)C[C@@H]1O [MLN4924] + N=C(N)NC(=N)NCCc1ccccc1 [Phenformin] (partner 250 µM)
Summary of the method: as §1

Row | Cell Line | relative viability ([1]; first compound 0.08 µM) | relative viability ([1]; first compound 0.253 µM) | relative viability ([1]; first compound 0.8 µM) | relative viability ([1]; first compound 2.53 µM) | relative viability ([1]; first compound 8 µM) | relative viability ([2]; first compound 0.08 µM) | relative viability ([2]; first compound 0.253 µM) | relative viability ([2]; first compound 0.8 µM) | relative viability ([2]; first compound 2.53 µM) | relative viability ([2]; first compound 8 µM) | relative viability ([3]; first compound 0.08 µM) | relative viability ([3]; first compound 0.253 µM) | relative viability ([3]; first compound 0.8 µM) | relative viability ([3]; first compound 2.53 µM) | relative viability ([3]; first compound 8 µM) | relative viability ([4]; first compound 0.04 µM) | relative viability ([4]; first compound 0.1265 µM) | relative viability ([4]; first compound 0.4 µM) | relative viability ([4]; first compound 1.265 µM) | relative viability ([4]; first compound 4 µM)
1 | NCI-H661 | 0.371 | 0.336 | 0.33 | 0.301 | 0.348 | 0.531 | 0.561 | 0.519 | 0.719 | 0.497 | 0.82 | 0.785 | 0.733 | 0.777 | 0.622 | 0.289 | 0.329 | 0.294 | 0.286 | 0.234
2 | NCI-H727 | 0.572 | 0.653 | 0.54 | 0.562 | 0.624 | 0.218 | 0.388 | 0.26 | 0.319 | 0.364 | 1.38 | 1.15 | 1.17 | 1.03 | 0.831 | 0.827 | 0.438 | 0.278 | 0.292 | 0.33
3 | NCI-H838 | 0.296 | 0.28 | 0.254 | 0.273 | 0.279 | 1.12 | 0.979 | 0.952 | 0.906 | 0.866 | 0.733 | 0.705 | 0.728 | 0.626 | 0.608 | 0.538 | 0.319 | 0.263 | 0.127 | 0.128
4 | NCI-H1355 | 0.578 | 0.616 | 0.601 | 0.489 | 0.55 | 0.947 | 0.872 | 0.793 | 0.637 | 0.841 | 0.745 | 0.673 | 0.648 | 0.655 | 0.559 | 0.42 | 0.407 | 0.352 | 0.218 | 0.235
5 | NCI-H1395 | 0.721 | 0.733 | 0.65 | 0.646 | 0.566 | 1.26 | 1.01 | 0.991 | 0.998 | 1.08 | 1.03 | 0.638 | 0.847 | 0.644 | 0.502 | 0.447 | 0.499 | 0.481 | 0.382 | 0.357
6 | NCI-H1437 | 0.386 | 0.43 | 0.403 | 0.4 | 0.401 | 1.07 | 1.07 | 0.954 | 0.983 | 0.938 | 0.803 | 0.869 | 0.728 | 0.808 | 0.598 | 0.325 | 0.337 | 0.388 | 0.258 | 0.195
7 | NCI-H1651 | 0.89 | 0.668 | 0.593 | 0.508 | 0.305 | 1.07 | 0.815 | 0.855 | 0.972 | 1.05 | 0.617 | 0.556 | 0.588 | 0.524 | 0.483 | 0.347 | 0.317 | 0.313 | 0.171 | 0.157
8 | NCI-H1666 | 0.597 | 0.683 | 0.599 | 0.534 | 0.526 | 0.857 | 1.01 | 0.898 | 0.768 | 1.08 | 1.09 | 0.966 | 1.04 | 0.921 | 0.665 | 0.509 | 0.453 | 0.449 | 0.265 | 0.337
9 | NCI-H1734 | 0.289 | 0.295 | 0.31 | 0.242 | 0.26 | 0.871 | 0.896 | 0.814 | 0.846 | 0.946 | 0.823 | 0.83 | 0.78 | 0.779 | 0.545 | 0.339 | 0.44 | 0.229 | 0.118 | 0.122
10 | NCI-H1755 | 0.57 | 0.587 | 0.543 | 0.535 | 0.484 | 1.01 | 1.04 | 1.01 | 0.967 | 1.03 | 0.793 | 0.834 | 0.874 | 0.722 | 0.685 | 0.605 | 0.534 | 0.332 | 0.228 | 0.23
11 | NCI-H1793 | 0.446 | 0.386 | 0.301 | 0.317 | 0.501 | 1.04 | 0.777 | 0.748 | 0.982 | 0.82 | 0.884 | 0.796 | 0.62 | 0.682 | 0.745 | 0.292 | 0.367 | 0.313 | 0.224 | 0.183
12 | NCI-H1915 | 0.494 | 0.455 | 0.411 | 0.364 | 0.331 | 1.2 | 1.08 | 1.14 | 1.17 | 1.16 | 0.508 | 0.506 | 0.513 | 0.48 | 0.299 | 0.347 | 0.33 | 0.291 | 0.179 | 0.211
13 | NCI-H1944 | 0.245 | 0.247 | 0.263 | 0.24 | 0.237 | 1.48 | 1.18 | 1.15 | 1.22 | 1.33 | 0.533 | 0.61 | 0.59 | 0.523 | 0.368 | 0.22 | 0.187 | 0.173 | 0.112 | 0.122
14 | NCI-H1975 | 0.882 | 0.719 | 0.634 | 0.626 | 0.677 | 1.02 | 1.01 | 0.983 | 0.96 | 0.987 | 0.783 | 0.711 | 0.579 | 0.534 | 0.656 | 0.418 | 0.479 | 0.494 | 0.328 | 0.184
15 | NCI-H1993 | 0.61 | 0.643 | 0.575 | 0.593 | 0.635 | 0.827 | 0.713 | 0.728 | 0.752 | 0.734 | 0.801 | 0.809 | 0.8 | 0.712 | 0.522 | 0.535 | 0.579 | 0.528 | 0.468 | 0.487
16 | NCI-H2009 | 0.848 | 0.694 | 0.76 | 0.613 | 0.45 | 1.3 | 1.18 | 1.27 | 1.18 | 1.2 | 0.75 | 0.771 | 0.723 | 0.704 | 0.477 | 0.24 | 0.184 | 0.156 | 0.0904 | 0.0791
